Assay results taken from ChEMBL document CHEMBL1201862, “PubChem BioAssay data set” (2004).
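Results reflect a 48-hour exposure of cells in 96-well plates to compound at five concentrations. Abbreviation: GI50, concentration required for 50% inhibition of growth.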 The source made the active and inactive calls. Rule as the data show it: active = GI50 up to about 1.1 µM and inactive = higher.

Tests used:
Experiment in all cases: NCI tumour cell line growth inhibition, 48 h
Hs-578T = test system: Hs-578T
SW-620 = test system: SW-620
HCT-15 = test system: HCT-15
HL-60 = test system: HL-60
SK-MEL-28 = test system: SK-MEL-28
HCC 2998 = test system: HCC 2998
BT-549 = test system: BT-549
NCI-H23 = test system: NCI-H23
Malme-3M = test system: Malme-3M
MOLT-4 = test system: MOLT-4
SR = test system: SR
MDA-MB-231 = test system: MDA-MB-231
SK-MEL-2 = test system: SK-MEL-2
OVCAR-3 = test system: OVCAR-3
U-251 = test system: U-251
MDA-MB-435 = test system: MDA-MB-435
RPMI-8226 = test system: RPMI-8226
HOP-92 = test system: HOP-92
IGROV-1 = test system: IGROV-1
SK-OV-3 = test system: SK-OV-3

For `CCOP(=O)(COCCn1ncc(=O)[nH]c1=O)OCC`, the GI50 (Hs-578T) was > 100 µM (inactive), the GI50 (SW-620) was > 100 µM (inactive) and the GI50 (HCT-15) was greater than 100 µM. The GI50 (HL-60) was > 100 µM (inactive), the GI50 (SK-MEL-28) was > 100 µM (inactive) and the GI50 (HCC 2998) was > 100 µM (inactive). The GI50 (BT-549) was > 100 µM (inactive), the GI50 (NCI-H23) was > 100 µM (inactive) and the GI50 (Malme-3M) was > 100 µM (inactive). The GI50 (MOLT-4) was > 100 µM (inactive), the GI50 (SR) was > 100 µM (inactive) and the GI50 (MDA-MB-231) was > 100 µM (inactive). The GI50 (SK-MEL-2) was > 100 µM (inactive), the GI50 (OVCAR-3) was > 100 µM (inactive) and the GI50 (U-251) was > 100 µM (inactive). For the same compound, the GI50 (MDA-MB-435) was > 100 µM (inactive), the GI50 (RPMI-8226) was > 100 µM (inactive) and the GI50 (HOP-92) was > 100 µM (inactive). The GI50 (IGROV-1) was > 100 µM (inactive).
In the case of `Nc1ncc2c(n1)-c1ccccc1OC2NC1CC1` (stereo not drawn), the GI50 (Hs-578T) is reported as > 100 µM (inactive), the GI50 (SW-620) is reported as > 100 µM (inactive) and the GI50 (HCT-15) is reported as greater than 100 µM. The GI50 (HL-60) was > 100 µM (inactive), the GI50 (BT-549) was > 100 µM (inactive) and the GI50 (NCI-H23) was > 100 µM (inactive). For the same compound, the GI50 (MOLT-4) was > 100 µM (inactive), the GI50 (SR) was > 100 µM (inactive) and the GI50 (MDA-MB-231) was > 100 µM (inactive). The GI50 (SK-OV-3) was > 100 µM (inactive), the GI50 (SK-MEL-2) was > 100 µM (inactive) and the GI50 (OVCAR-3) was > 100 µM (inactive). For the same compound, the GI50 (U-251) was > 100 µM (inactive), the GI50 (MDA-MB-435) was > 100 µM (inactive) and the GI50 (RPMI-8226) was > 100 µM (inactive). For the same compound, the GI50 (HOP-92) was > 100 µM (inactive) and the GI50 (IGROV-1) was > 100 µM (inactive).
`CSc1nc(NC2CCCC2)c2cc[nH]c2n1` was tested, and the GI50 (Hs-578T) was 53.1 µM (inactive), the GI50 (SW-620) was > 100 µM (inactive) and the GI50 (HCT-15) was 54.2 µM. The GI50 (HL-60) was 20 µM (inactive), the GI50 (SK-MEL-28) was 92 µM (inactive) and the GI50 (HCC 2998) was > 100 µM (inactive). The GI50 (BT-549) was 74.6 µM (inactive), the GI50 (NCI-H23) was 91 µM (inactive) and the GI50 (Malme-3M) was > 100 µM (inactive). The GI50 (MOLT-4) was 42.4 µM (inactive), the GI50 (SR) was 22.3 µM (inactive) and the GI50 (MDA-MB-231) was 36.1 µM (inactive). For the same compound, the GI50 (SK-OV-3) was > 100 µM (inactive), the GI50 (OVCAR-3) was 54.1 µM (inactive) and the GI50 (U-251) was 36.4 µM (inactive). For the same compound, the GI50 (MDA-MB-435) was 59.2 µM (inactive), the GI50 (RPMI-8226) was 33.6 µM (inactive) and the GI50 (HOP-92) was 30.1 µM (inactive). For the same compound, the GI50 (IGROV-1) was 98.2 µM (inactive).
In the case of `CC(=O)N1C(Nc2ccccc2)CCN1c1ccccc1` (stereo not drawn), the GI50 (Hs-578T) is reported as > 10 µM (inactive), the GI50 (SW-620) is reported as 5.64 µM (inactive) and the GI50 (HCT-15) is reported as 3.66 µM. For the same compound, the GI50 (HL-60) was 5.08 µM (inactive), the GI50 (SK-MEL-28) was > 10 µM (inactive) and the GI50 (HCC 2998) was > 10 µM (inactive). The GI50 (BT-549) was > 10 µM (inactive), the GI50 (NCI-H23) was > 10 µM (inactive) and the GI50 (Malme-3M) was 5.38 µM (inactive). For the same compound, the GI50 (MOLT-4) was 9.77 µM (inactive), the GI50 (SR) was > 10 µM (inactive) and the GI50 (MDA-MB-231) was > 10 µM (inactive). The GI50 (SK-OV-3) was > 10 µM (inactive), the GI50 (SK-MEL-2) was > 10 µM (inactive) and the GI50 (OVCAR-3) was > 10 µM (inactive). The GI50 (MDA-MB-435) was 3.68 µM (inactive), the GI50 (RPMI-8226) was > 10 µM (inactive) and the GI50 (HOP-92) was > 10 µM (inactive). For the same compound, the GI50 (IGROV-1) was > 10 µM (inactive).
With `CCOC(=O)c1cc([N+](=O)[O-])cc([N+](=O)[O-])c1Sc1[nH]cnc2ncnc1-2` the GI50 (Hs-578T) was 6.92 µM (inactive), the GI50 (SW-620) was 2.42 µM (inactive) and the GI50 (HCT-15) was 4.33 µM. For the same compound, the GI50 (HL-60) was 1.94 µM (inactive), the GI50 (SK-MEL-28) was 3.13 µM (inactive) and the GI50 (HCC 2998) was 11.9 µM (inactive). The GI50 (BT-549) was 2.24 µM (inactive), the GI50 (MOLT-4) was 1.24 µM (inactive) and the GI50 (SR) was 2.38 µM (inactive). For the same compound, the GI50 (MDA-MB-231) was 7.01 µM (inactive), the GI50 (SK-OV-3) was 11 µM (inactive) and the GI50 (SK-MEL-2) was 2.93 µM (inactive). The GI50 (OVCAR-3) was 1.12 µM (active), the GI50 (U-251) was 8.71 µM (inactive) and the GI50 (MDA-MB-435) was 1.6 µM (inactive). For the same compound, the GI50 (RPMI-8226) was 1.65 µM (inactive), the GI50 (HOP-92) was 0.771 µM (active) and the GI50 (IGROV-1) was 2.31 µM (inactive).
For `CC1=CC(=O)/C(=C/NC(=S)NCc2ccccc2)C(=O)O1`, the GI50 (Hs-578T) was > 100 µM (inactive), the GI50 (SW-620) was > 100 µM (inactive) and the GI50 (HCT-15) was greater than 100 µM. For the same compound, the GI50 (HL-60) was 75.3 µM (inactive), the GI50 (SK-MEL-28) was > 100 µM (inactive) and the GI50 (HCC 2998) was > 100 µM (inactive). For the same compound, the GI50 (BT-549) was > 100 µM (inactive), the GI50 (NCI-H23) was > 100 µM (inactive) and the GI50 (Malme-3M) was > 100 µM (inactive). The GI50 (MOLT-4) was 52.2 µM (inactive), the GI50 (SR) was > 100 µM (inactive) and the GI50 (MDA-MB-231) was > 100 µM (inactive). The GI50 (SK-OV-3) was > 100 µM (inactive), the GI50 (SK-MEL-2) was > 100 µM (inactive) and the GI50 (OVCAR-3) was > 100 µM (inactive). For the same compound, the GI50 (U-251) was > 100 µM (inactive), the GI50 (MDA-MB-435) was > 100 µM (inactive) and the GI50 (HOP-92) was > 100 µM (inactive). For the same compound, the GI50 (IGROV-1) was > 100 µM (inactive).
In the case of `O=C(Nc1ccc([As](=O)(O)O)cc1)Nc1cccc(Cl)c1Cl`, the GI50 (Hs-578T) is reported as 20.5 µM (inactive), the GI50 (SW-620) is reported as > 100 µM (inactive) and the GI50 (HCT-15) is reported as greater than 100 µM. For the same compound, the GI50 (HL-60) was > 100 µM (inactive), the GI50 (SK-MEL-28) was > 100 µM (inactive) and the GI50 (HCC 2998) was > 100 µM (inactive). For the same compound, the GI50 (BT-549) was > 100 µM (inactive), the GI50 (NCI-H23) was > 100 µM (inactive) and the GI50 (Malme-3M) was > 100 µM (inactive). The GI50 (SR) was 17 µM (inactive), the GI50 (MDA-MB-231) was 23.3 µM (inactive) and the GI50 (SK-OV-3) was > 100 µM (inactive). The GI50 (SK-MEL-2) was > 100 µM (inactive), the GI50 (OVCAR-3) was > 100 µM (inactive) and the GI50 (U-251) was 36.5 µM (inactive). For the same compound, the GI50 (MDA-MB-435) was > 100 µM (inactive), the GI50 (RPMI-8226) was > 100 µM (inactive) and the GI50 (HOP-92) was 77.8 µM (inactive). For the same compound, the GI50 (IGROV-1) was > 100 µM (inactive).
For `O=c1cnn(C/C=C/CBr)c(=O)[nH]1`, the GI50 (Hs-578T) was 33 µM (inactive), the GI50 (SW-620) was 13.6 µM (inactive) and the GI50 (HCT-15) was 18.2 µM. For the same compound, the GI50 (HL-60) was 8.47 µM (inactive), the GI50 (SK-MEL-28) was 19.2 µM (inactive) and the GI50 (HCC 2998) was 18.5 µM (inactive). For the same compound, the GI50 (BT-549) was 0.527 µM (active), the GI50 (Malme-3M) was 16.4 µM (inactive) and the GI50 (MOLT-4) was 19.6 µM (inactive). For the same compound, the GI50 (SR) was 17.7 µM (inactive), the GI50 (MDA-MB-231) was 21.9 µM (inactive) and the GI50 (SK-MEL-2) was 17.1 µM (inactive). The GI50 (OVCAR-3) was 25.7 µM (inactive), the GI50 (U-251) was 15 µM (inactive) and the GI50 (MDA-MB-435) was 14.9 µM (inactive). The GI50 (RPMI-8226) was 5.48 µM (inactive), the GI50 (HOP-92) was 14.6 µM (inactive) and the GI50 (IGROV-1) was 16.2 µM (inactive).
